Experiments:
[1] = biological target: T1, P2X purinoceptor 4 (Homo sapiens, UniProt Q99571); experiment: Antagonist activity against recombinant human P2X purinoceptor 4 (P2X4); assay type: functional
T1 sequence (Q99571 whole entry): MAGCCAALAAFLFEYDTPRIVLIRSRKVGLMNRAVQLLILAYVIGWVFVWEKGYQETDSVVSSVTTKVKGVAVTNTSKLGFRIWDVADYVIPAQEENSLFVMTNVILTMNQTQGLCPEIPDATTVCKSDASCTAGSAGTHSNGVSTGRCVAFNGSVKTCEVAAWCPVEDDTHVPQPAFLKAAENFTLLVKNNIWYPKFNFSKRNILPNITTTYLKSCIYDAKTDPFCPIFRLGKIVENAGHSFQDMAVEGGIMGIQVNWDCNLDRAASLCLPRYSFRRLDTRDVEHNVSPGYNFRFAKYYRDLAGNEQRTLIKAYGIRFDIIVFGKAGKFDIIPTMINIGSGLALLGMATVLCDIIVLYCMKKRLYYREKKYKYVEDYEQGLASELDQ

[2] = biological target: T2, P2X purinoceptor 7 (Homo sapiens, UniProt Q99572); experiment: Antagonist activity against recombinant human P2X purinoceptor 7 (P2X7); assay type: functional
T2 sequence (Q99572 whole entry): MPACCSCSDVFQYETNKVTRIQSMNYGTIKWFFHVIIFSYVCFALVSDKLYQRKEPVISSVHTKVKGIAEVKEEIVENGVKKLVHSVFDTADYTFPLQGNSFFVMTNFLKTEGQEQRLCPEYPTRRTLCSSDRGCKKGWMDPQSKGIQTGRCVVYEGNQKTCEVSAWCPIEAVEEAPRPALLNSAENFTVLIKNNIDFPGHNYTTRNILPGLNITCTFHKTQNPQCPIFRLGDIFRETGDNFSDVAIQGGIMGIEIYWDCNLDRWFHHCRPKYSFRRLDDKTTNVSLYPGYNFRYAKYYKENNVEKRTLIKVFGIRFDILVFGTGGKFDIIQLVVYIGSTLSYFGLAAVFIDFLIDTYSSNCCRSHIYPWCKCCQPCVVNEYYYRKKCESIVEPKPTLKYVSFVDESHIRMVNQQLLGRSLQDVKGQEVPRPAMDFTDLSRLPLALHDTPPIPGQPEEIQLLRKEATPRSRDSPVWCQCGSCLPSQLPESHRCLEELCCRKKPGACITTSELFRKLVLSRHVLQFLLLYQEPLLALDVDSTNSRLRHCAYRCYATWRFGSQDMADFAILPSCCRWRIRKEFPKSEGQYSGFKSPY

## CN([C@@H](Cc1ccc(OS(=O)(=O)c2cccc3cnccc23)cc1)C(=O)N1CCN(c2ccccc2)CC1)S(=O)(=O)c1cccc2cnccc12
[1]
  EC50: 100 µM
[2]
  EC50: 0.034 µM

From ChEMBL document CHEMBL1135773, “Purine and pyrimidine (P2) receptors as drug targets” (J Med Chem, 2002)
